Test results: ChEMBL document CHEMBL2417397, “Synthesis and biological properties of new N-Mannich bases derived from 3-methyl-3-phenyl- and 3,3-dimethyl-succinimides. Part V” (Eur J Med Chem, 2013)
Activity calls are given as the source filed them. The calls are words filed in the database; no cut-off is given here.

Key:
Rattus norvegicus [1] = assay: Neurotoxicity in Sprague-Dawley albino rat assessed as motor impairment at 30 mg/kg, po; type: toxicity, organism-based; parameters: dose 30 mg/kg, route oral; conditions: in vivo
[2] = Neurotoxicity in ip dosed CF-1 albino mouse after 4 hrs by rotarod test; type: toxicity, organism-based; conditions: CF-1, mouse, in vivo
Rattus norvegicus [3] = assay: Anticonvulsant activity in Sprague-Dawley albino rat assessed as protection against maximal electroshock-induced seizures at 30 mg/kg, po after 0.5 hrs; type: functional
Mus musculus [4] = assay: Anticonvulsant activity in ip dosed CF-1 albino mouse assessed as protection against maximal electroshock-induced seizures after 4 hrs; type: functional
[5] = Neurotoxicity in ip dosed CF-1 albino mouse after 0.5 hrs by rotarod test; type: toxicity, organism-based; conditions: CF-1, mouse, in vivo
Rattus norvegicus [6] = assay: Anticonvulsant activity in Sprague-Dawley albino rat assessed as protection against maximal electroshock-induced seizures at 30 mg/kg, po after 2 hrs; type: functional
Rattus norvegicus [7] = assay: Anticonvulsant activity in Sprague-Dawley albino rat assessed as protection against maximal electroshock-induced seizures at 30 mg/kg, po after 4 hrs; type: functional
Mus musculus [8] = assay: Anticonvulsant activity in CF-1 albino mouse assessed as protection against maximal electroshock-induced seizures at 300 mg/kg, ip after 0.5 hrs; type: functional, organism-based; parameters: dose 300 mg/kg
Rattus norvegicus [9] = assay: Anticonvulsant activity in Sprague-Dawley albino rat assessed as protection against maximal electroshock-induced seizures at 30 mg/kg, po after 1 hr; type: functional
Rattus norvegicus [10] = assay: Anticonvulsant activity in Sprague-Dawley albino rat assessed as protection against maximal electroshock-induced seizures at 30 mg/kg, po after 0.25 hrs; type: functional
Mus musculus [11] = assay: Neurotoxicity in CF-1 albino mouse at 300 mg/kg, ip after 0.5 hrs by rotarod test; type: toxicity, organism-based; parameters: dose 300 mg/kg, route intraperitoneal; conditions: in vivo
Vibrio harveyi [12] = assay: Antimutagenic activity in Vibrio harveyi BB7M assessed as inhibition of 4-nitroquinoline-N-oxide-induced mutation; type: functional
Vibrio harveyi [13] = assay: Antimutagenic activity in Vibrio harveyi BB7XM assessed as inhibition of 4-nitroquinoline-N-oxide-induced mutation; type: functional
Mus musculus [14] = assay: Neurotoxicity in CF-1 albino mouse at 300 mg/kg, ip after 4 hrs by rotarod test; type: toxicity, organism-based; parameters: dose 300 mg/kg, route intraperitoneal; conditions: in vivo
Vibrio harveyi [15] = assay: Antimutagenic activity in Vibrio harveyi BB7 assessed as inhibition of 4-nitroquinoline-N-oxide-induced mutation; type: functional
Vibrio harveyi [16] = assay: Induction of mutagenecity in Vibrio harveyi BB7X; type: organism-based; conditions: in vivo
Vibrio harveyi [17] = assay: Induction of mutagenecity in Vibrio harveyi BB7XM; type: organism-based; conditions: in vivo
Vibrio harveyi [18] = assay: Antimutagenic activity in Vibrio harveyi BB7X assessed as inhibition of 4-nitroquinoline-N-oxide-induced mutation; type: functional
Vibrio harveyi [19] = assay: Induction of mutagenecity in Vibrio harveyi BB7; type: organism-based; conditions: in vivo
Vibrio harveyi [20] = assay: Induction of mutagenecity in Vibrio harveyi BB7M; type: organism-based; conditions: in vivo
Mus musculus [21] = assay: Anticonvulsant activity in CF-1 albino mouse assessed as protection against maximal electroshock-induced seizures at 300 mg/kg, ip after 4 hrs; type: functional, organism-based; parameters: dose 300 mg/kg
Mus musculus [22] = assay: Anticonvulsant activity in ip dosed CF-1 albino mouse assessed as protection against maximal electroshock-induced seizures after 0.5 hrs; type: functional
Rattus norvegicus [23] = assay: Anticonvulsant activity in po dosed Sprague-Dawley albino rat assessed as protection against maximal electroshock-induced seizures after 0.25 to 4 hrs; type: functional
[24] = Neurotoxicity in po dosed Sprague-Dawley albino rat at 30 mg/kg, po after 0.25 to 4 hrs by rotarod test; type: toxicity, organism-based; parameters: dose 30 mg/kg, route oral; conditions: in vivo
Rattus norvegicus [25] = organism: Rattus norvegicus; assay: Protective index, ratio of TD50 for Sprague-Dawley albino rat by rotarod test to ED50 for Sprague-Dawley albino rat; type: functional
Rattus norvegicus [26] = assay: Anticonvulsant activity in Sprague-Dawley albino rat assessed as time of peak effect for protection against maximal electroshock-induced seizures at 30 mg/kg, po; type: functional
Mus musculus [27] = assay: Anticonvulsant activity in CF-1 albino mouse assessed as time of peak effect for protection against maximal electroshock-induced seizures at 30 to 300 mg/kg, ip; type: functional; conditions: dose mg/kg 30-300; route intraperitoneal

Compound | TD50 at 4 h [2] [mg/kg] | MED50 (Mus musculus [4]) [mg/kg] | TD50 at 0.5 h [5] [mg/kg] | Activity (Mus musculus [8]) | Activity (Mus musculus [14]) | Activity (Vibrio harveyi [16]) | Activity (Vibrio harveyi [17]) | Activity (Vibrio harveyi [19]) | Activity (Vibrio harveyi [20]) | Activity (Mus musculus [21]) | further results
CC1(C)CC(=O)N(CN2CCN(c3cccc(C(F)(F)F)c3)CC2)C1=O | 300 | 30 | 300 | inactive | – | – | – | – | – | – | Activity (Rattus norvegicus [1]): Non-toxic; Activity (Rattus norvegicus [3]): 75%; Activity (Rattus norvegicus [6]): 50%; Activity (Rattus norvegicus [7]): Active; Activity (Rattus norvegicus [9]): 25%; Activity (Rattus norvegicus [10]): 25%
CC1(c2ccccc2)CC(=O)N(CN2CCN(c3ccc(Cl)cc3)CC2)C1=O (configuration not stated) | – | 100 | – | inactive | Non-toxic | Non-toxic | Non-toxic | Non-toxic | Non-toxic | – | Activity (Rattus norvegicus [1]): Non-toxic; Activity (Mus musculus [11]): Non-toxic; Activity (Rattus norvegicus [3]): inactive; inhibition (INH) (Vibrio harveyi [12]): 43%; inhibition (INH) (Vibrio harveyi [13]): 43%; inhibition (INH) (Vibrio harveyi [15]): 6%; Activity (Rattus norvegicus [6]): 75%; Activity (Rattus norvegicus [7]): 75%; inhibition (INH) (Vibrio harveyi [18]): 0%; Activity (Rattus norvegicus [9]): 75%; Activity (Rattus norvegicus [10]): inactive
CC1(c2ccccc2)CC(=O)N(CN2CCN(c3ccccc3)CC2)C1=O (configuration not stated) | – | 100 | – | inactive | Non-toxic | Non-toxic | Non-toxic | Non-toxic | Non-toxic | – | Activity (Mus musculus [11]): Non-toxic; inhibition (INH) (Vibrio harveyi [12]): 38%; inhibition (INH) (Vibrio harveyi [13]): 40%; inhibition (INH) (Vibrio harveyi [15]): 28%; inhibition (INH) (Vibrio harveyi [18]): 0%
CC1(c2ccccc2)CC(=O)N(CN2CCN(c3ccccc3F)CC2)C1=O (configuration not stated) | 300 | 100 | 300 | inactive | – | Non-toxic | Non-toxic | Non-toxic | Non-toxic | – | inhibition (INH) (Vibrio harveyi [12]): 57%; inhibition (INH) (Vibrio harveyi [13]): 35%; inhibition (INH) (Vibrio harveyi [15]): 25%; inhibition (INH) (Vibrio harveyi [18]): 0%
CC1(C)CC(=O)N(CN2CCN(c3cccc(Cl)c3)CC2)C1=O | 300 | – | 300 | inactive | – | – | – | – | – | inactive | –
Cc1cccc(N2CCN(CN3C(=O)CC(C)(c4ccccc4)C3=O)CC2)c1 (configuration not stated) | 300 | 100 | 300 | – | – | Non-toxic | Toxic | Non-toxic | Toxic | – | Activity (Rattus norvegicus [1]): Non-toxic; MED50 (Mus musculus [22]): 100 mg/kg; Activity (Rattus norvegicus [3]): inactive; Activity (Rattus norvegicus [6]): 50%; Activity (Rattus norvegicus [7]): 50%; Activity (Rattus norvegicus [9]): 50%; Activity (Rattus norvegicus [10]): inactive
COc1cccc(N2CCN(CN3C(=O)CC(C)(C)C3=O)CC2)c1 | – | 100 | 300 | inactive | Non-toxic | – | – | – | – | – | Activity (Rattus norvegicus [1]): Non-toxic; Activity (Rattus norvegicus [3]): 25%; Activity (Rattus norvegicus [6]): inactive; Activity (Rattus norvegicus [7]): inactive; Activity (Rattus norvegicus [9]): inactive; Activity (Rattus norvegicus [10]): inactive
CC1(C)CC(=O)N(CN2CCN(c3ccccc3)CC2)C1=O | 300 | 100 | 300 | inactive | – | – | – | – | – | – | –
O=C1CC(c2ccccc2Br)C(=O)N1CN1CCN(c2ccc(F)cc2)CC1 (configuration not stated) | – | – | – | – | – | – | – | – | – | – | ED50 (Rattus norvegicus [23]): 7.4 mg/kg; TD50 [24]: 62.4 mg/kg
CC1(c2ccccc2)CC(=O)N(CN2CCN(c3ccccc3Cl)CC2)C1=O (configuration not stated) | – | – | – | inactive | Non-toxic | Non-toxic | Non-toxic | Non-toxic | Non-toxic | inactive | Activity (Mus musculus [11]): Non-toxic; inhibition (INH) (Vibrio harveyi [12]): 47%; inhibition (INH) (Vibrio harveyi [13]): 49%; inhibition (INH) (Vibrio harveyi [15]): 3%; inhibition (INH) (Vibrio harveyi [18]): 0%
CCC1(C)CC(=O)NC1=O (configuration not stated) [ETHOSUXIMIDE] | – | – | – | – | – | Non-toxic | Non-toxic | Non-toxic | Non-toxic | – | inhibition (INH) (Vibrio harveyi [12]): 43%; inhibition (INH) (Vibrio harveyi [13]): 43%; inhibition (INH) (Vibrio harveyi [15]): 30%; inhibition (INH) (Vibrio harveyi [18]): 0%
CC1(c2ccccc2)CC(=O)N(CN2CCN(c3cccc(C(F)(F)F)c3)CC2)C1=O (configuration not stated) | 300 | 100 | – | inactive | – | – | – | – | – | – | Activity (Mus musculus [11]): Non-toxic
COc1cccc(N2CCN(CN3C(=O)CC(C)(c4ccccc4)C3=O)CC2)c1 (configuration not stated) | – | 100 | – | – | Non-toxic | Non-toxic | Toxic | Non-toxic | Toxic | – | Activity (Mus musculus [11]): Non-toxic; MED50 (Mus musculus [22]): 100 mg/kg
Cc1cccc(N2CCN(CN3C(=O)CC(C)(C)C3=O)CC2)c1 | – | – | 300 | inactive | Non-toxic | – | – | – | – | inactive | –
CC1(C)CC(=O)N(CN2CCN(c3ccccc3Cl)CC2)C1=O | – | – | 100 | inactive | Non-toxic | – | – | – | – | inactive | –
COc1ccccc1N1CCN(CN2C(=O)CC(C)(c3ccccc3)C2=O)CC1 (configuration not stated) | 300 | 100 | 300 | – | – | Non-toxic | Toxic | Non-toxic | Toxic | – | Activity (Rattus norvegicus [1]): Non-toxic; MED50 (Mus musculus [22]): 100 mg/kg; Activity (Rattus norvegicus [3]): inactive; Activity (Rattus norvegicus [6]): 50%; Activity (Rattus norvegicus [7]): 50%; Activity (Rattus norvegicus [9]): 50%; Activity (Rattus norvegicus [10]): inactive
CC1(C)CC(=O)N(CN2CCN(c3ccccc3F)CC2)C1=O | – | 100 | 300 | inactive | Non-toxic | – | – | – | – | – | –
O=C1CC(c2ccccc2)(c2ccccc2)C(=O)N1CN1CCN(c2cccc(C(F)(F)F)c2)CC1 | – | – | – | – | – | – | – | – | – | – | ED50 (Rattus norvegicus [23]): 30 mg/kg; TD50 [24]: < 400 mg/kg; Ratio TD50/ED50 (Rattus norvegicus [25]): <13.2
CC1(C)CC(=O)N(CN2CCN(c3ccc(Cl)cc3)CC2)C1=O | – | – | 300 | inactive | Non-toxic | – | – | – | – | inactive | –
O=C1CC2(CCc3ccccc3C2)C(=O)N1CN1CCN(c2cccc(Cl)c2)CC1 (configuration not stated) | – | – | – | – | – | – | – | – | – | – | ED50 (Rattus norvegicus [23]): 15.6 mg/kg; TD50 [24]: > 400 mg/kg; Ratio TD50/ED50 (Rattus norvegicus [25]): >25.69
O=C1NC(=O)C(c2ccccc2)(c2ccccc2)N1 [PHENYTOIN] | – | – | – | – | – | – | – | – | – | – | Activity (Rattus norvegicus [3]): Active; Activity (Rattus norvegicus [6]): 75%; Activity (Rattus norvegicus [7]): 75%; Time (Rattus norvegicus [26]): 2 h; TD50 [24]: > 100 mg/kg; Activity (Rattus norvegicus [9]): 75%; Ratio TD50/ED50 (Rattus norvegicus [25]): >3.6; Time (Mus musculus [27]): 1 h; Activity (Rattus norvegicus [10]): 25%
Cc1ccccc1N1CCN(CN2C(=O)CC(C)(C)C2=O)CC1 | 300 | – | 300 | inactive | – | – | – | – | – | inactive | –
COc1ccccc1N1CCN(CN2C(=O)CC(C)(C)C2=O)CC1 | – | – | 300 | inactive | Non-toxic | – | – | – | – | inactive | –
CC1(C)CC(=O)N(CN2CCN(c3ccc(F)cc3)CC2)C1=O | – | – | 300 | inactive | Non-toxic | – | – | – | – | inactive | –
CC1(C)CC(=O)N(CN2CCN(c3ccc(Cl)c(Cl)c3)CC2)C1=O | – | – | – | inactive | Non-toxic | – | – | – | – | inactive | Activity (Mus musculus [11]): Non-toxic
Cc1ccccc1N1CCN(CN2C(=O)CC(C)(c3ccccc3)C2=O)CC1 (configuration not stated) | – | – | 300 | inactive | Non-toxic | Non-toxic | Toxic | Non-toxic | Toxic | inactive | –
